Melting point data for 5 molecules are collected here from paper PMC7758046, “Novel piperazine–chalcone hybrids and related pyrazoline analogues targeting VEGFR-2 kinase; design, synthesis, molecular docking studies, and anticancer evaluation” (Journal of Enzyme Inhibition and Medicinal Chemistry, 2020).

Structures are written as SMILES.

Usually melting point stands for the temperature, or range, at which the solid turns liquid. In turn, `N#Cc1ccccc1C=CC(=O)c1ccc(N2CCNCC2)cc1` [Va, 2-(3-Oxo-3-(4-(piperazin-1-yl)phenyl)prop-1-enyl)benzonitrile] gave a melting point of 150 °C. Regarding `N#Cc1ccc(C=CC(=O)c2ccc(N3CCNCC3)cc2)cc1` [Vb, 4-(3-Oxo-3–(4-(piperazin-1-yl)phenyl)prop-1-enyl)benzonitrile], the melting point is 170 °C. For `O=C(C=Cc1ccccc1F)c1ccc(N2CCNCC2)cc1` [Vc, 3-(2-Fluorophenyl)-1-(4-(piperazin-1-yl)phenyl)prop-2-en-1-one] the value was 176 °C; for `O=C(C=Cc1cc([N+](=O)[O-])ccc1O)c1ccc(N2CCNCC2)cc1` [Vg, 3-(2-Hydroxy-5-nitrophenyl)-1-(4-(piperazin-1-yl)phenyl)prop-2-en-1-one], 185 °C; for `O=C(C=Cc1ccco1)c1ccc(N2CCNCC2)cc1` [Vh, 3-(Furan-2-yl)-1-(4-(piperazin-1-yl)phenyl)prop-2-en-1-one], 190 °C.
